Laboratory results reported in ChEMBL document CHEMBL1144213, “Synthesis and antiproliferative activity of unnatural enantiomers of 7-epi-goniofufurone and crassalactone C” (Bioorg Med Chem Lett, 2008).

Assays:
Jurkat = test: Cytotoxicity against human Jurkat cells after 72 hrs by MTT assay; type: functional, cell-based
MRC5 = test: Cytotoxicity against human MRC5 cells after 72 hrs by MTT assay; type: cell-based; details: MRC5, 72 h
Raji = test: Cytotoxicity against human Raji cells after 72 hrs by MTT assay; type: functional, cell-based
HeLa = test: Cytotoxicity against human HeLa cells after 72 hrs by MTT assay; type: functional, cell-based
HL-60 = test: Cytotoxicity against human HL-60 cells after 72 hrs by MTT assay; type: functional, cell-based; details: HL-60, 72 h

## O=C1C[C@H]2O[C@H]([C@@H](O)c3ccccc3)[C@H](O)[C@H]2O1
Jurkat
  IC50: 18.6 µM
MRC5
  IC50: > 100 µM
Raji
  IC50: 1.25 µM
HeLa
  IC50: 0.89 µM
HL-60
  IC50: 22 µM

## O=C1C[C@@H]2O[C@@H]([C@H](O)c3ccccc3)[C@@H](O)[C@@H]2O1
Jurkat
  IC50: 0.05 µM
MRC5
  IC50: > 100 µM
Raji
  IC50: > 100 µM
HeLa
  IC50: 4.38 µM
HL-60
  IC50: 13.9 µM

## O=C1C[C@@H]2O[C@@H]3[C@@H](O[C@H]3c3ccccc3)[C@@H]2O1
Jurkat
  IC50: 28.4 µM
MRC5
  IC50: > 100 µM
Raji
  IC50: 0.45 µM
HeLa
  IC50: 0.97 µM
HL-60
  IC50: 0.025 µM

## O=C(/C=C/c1ccccc1)O[C@H](c1ccccc1)[C@H]1O[C@@H]2CC(=O)O[C@@H]2[C@H]1O [(+)-CRASSALACTONE C]
Jurkat
  IC50: 25.4 µM
MRC5
  IC50: > 100 µM
Raji
  IC50: 15.5 µM
HeLa
  IC50: 11.2 µM
HL-60
  IC50: > 100 µM

## O=C(/C=C/c1ccccc1)O[C@@H](c1ccccc1)[C@@H]1O[C@H]2CC(=O)O[C@H]2[C@@H]1O [CRASSALACTONE C (ENANTIOMERIC MIX)]
Jurkat
  IC50: 15.7 µM
MRC5
  IC50: > 100 µM
Raji
  IC50: 0.57 µM
HeLa
  IC50: 1.18 µM
HL-60
  IC50: 1.87 µM

## COc1cccc2c1C(=O)c1c(O)c3c(c(O)c1C2=O)C[C@@](O)(C(=O)CO)C[C@@H]3O[C@H]1C[C@H](N)[C@H](O)[C@H](C)O1 [DOXORUBICIN]
Jurkat
  IC50: 0.03 µM
HL-60
  IC50: 0.92 µM
